Data reported in ChEMBL document CHEMBL1201862, “PubChem BioAssay data set” (2004).
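Method: 48-hour compound exposure of cells in 96-well plates, five concentrations, linear interpolation of endpoints. GI50 is the concentration that inhibits growth by half.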 Activity calls are given as the source filed them. No stated cut-off is given here; in the data, active = GI50 up to about 1.1 µM and inactive = higher.

Columns and labels:
Test in all cases: inhibition of tumour cell growth, NCI panel, 48 h
A549 = tested on: A549
COLO 205 = tested on: COLO 205
HCT-116 = tested on: HCT-116
HOP-62 = tested on: HOP-62
K562 = tested on: K562
MCF7 = tested on: MCF7
MDA-MB-435 = tested on: MDA-MB-435
MOLT-4 = tested on: MOLT-4
NCI-H226 = tested on: NCI-H226
NCI/ADR-RES = tested on: NCI/ADR-RES
OVCAR-8 = tested on: OVCAR-8
PC-3 = tested on: PC-3
SF-268 = tested on: SF-268
SF-295 = tested on: SF-295
SNB-19 = tested on: SNB-19
SR = tested on: SR
SW-620 = tested on: SW-620
TK-10 = tested on: TK-10
UACC-257 = tested on: UACC-257

| SMILES | GI50 (A549) | GI50 (COLO 205) | GI50 (HCT-116) | GI50 (HOP-62) | GI50 (K562) | GI50 (MCF7) | GI50 (MDA-MB-435) | GI50 (MOLT-4) | GI50 (NCI-H226) | GI50 (NCI/ADR-RES) | GI50 (OVCAR-8) | GI50 (PC-3) | GI50 (SF-268) | GI50 (SF-295) | GI50 (SNB-19) | GI50 (SR) | GI50 (SW-620) | GI50 (TK-10) | GI50 (UACC-257) |
| --- | --- | --- | --- | --- | --- | --- | --- | --- | --- | --- | --- | --- | --- | --- | --- | --- | --- | --- | --- |
| COC(=O)C1=C(OC(=O)/C(=C/c2ccccc2)c2ccc(OC)cc2)C(C(=O)OC)[C@@]2(O)[C@@H](C(=O)OC)[C@H](C)C[C@@H]1[C@@H]2C(=O)OC (stereo partly drawn) | 50.1 µM (inactive) | > 100 µM (inactive) | > 100 µM (inactive) | > 100 µM (inactive) | > 100 µM (inactive) | > 100 µM (inactive) | > 100 µM (inactive) | > 100 µM (inactive) | > 100 µM (inactive) | > 100 µM (inactive) | 35.6 µM (inactive) | > 100 µM (inactive) | > 100 µM (inactive) | > 100 µM (inactive) | 32.4 µM (inactive) | > 100 µM (inactive) | > 100 µM (inactive) | > 100 µM (inactive) | > 100 µM (inactive) |
| O=C1c2ccccc2CN1c1ccc(O)cc1 | > 100 µM (inactive) | > 100 µM (inactive) | > 100 µM (inactive) | > 100 µM (inactive) | > 100 µM (inactive) | > 100 µM (inactive) | > 100 µM (inactive) | > 100 µM (inactive) | > 100 µM (inactive) | > 100 µM (inactive) | > 100 µM (inactive) | > 100 µM (inactive) | > 100 µM (inactive) | > 100 µM (inactive) | > 100 µM (inactive) | > 100 µM (inactive) | > 100 µM (inactive) | > 100 µM (inactive) | > 100 µM (inactive) |
| COc1ccc2[nH]c3c(C)c4cnccc4c(C)c3c2c1 | 1.85 µM (inactive) | 1.58 µM (inactive) | 1.25 µM (inactive) | 1.43 µM (inactive) | 2.4 µM (inactive) | 1.52 µM (inactive) | 1.48 µM (inactive) | 0.571 µM (active) | 1.4 µM (inactive) | 1.22 µM (inactive) | 1.01 µM (active) | 2.99 µM (inactive) | 2.75 µM (inactive) | 3.3 µM (inactive) | > 10 µM (inactive) | 3.57 µM (inactive) | 0.964 µM (active) | 5.69 µM (inactive) | 4.07 µM (inactive) |
| CN(C)CCCNC(=O)N/N=C/c1ccc(O)cc1 | > 100 µM (inactive) | > 100 µM (inactive) | > 100 µM (inactive) | > 100 µM (inactive) | > 100 µM (inactive) | > 100 µM (inactive) | > 100 µM (inactive) | > 100 µM (inactive) | > 100 µM (inactive) | > 100 µM (inactive) | > 100 µM (inactive) | > 100 µM (inactive) | > 100 µM (inactive) | > 100 µM (inactive) | > 100 µM (inactive) | > 100 µM (inactive) | > 100 µM (inactive) | > 100 µM (inactive) | > 100 µM (inactive) |
| Nc1nncc2[nH]cnc12 | 44.7 µM (inactive) | 24.2 µM (inactive) | 36.6 µM (inactive) | > 100 µM (inactive) | 7.01 µM (inactive) | 23.4 µM (inactive) | > 74.3 µM (inactive) | 10.1 µM (inactive) | > 100 µM (inactive) | 94 µM (inactive) | 22.5 µM (inactive) | 69 µM (inactive) | 50.5 µM (inactive) | 42.8 µM (inactive) | > 100 µM (inactive) | > 100 µM (inactive) | 31 µM (inactive) | > 50.1 µM (inactive) | 63.5 µM (inactive) |
| CC(/C=C/c1ccccc1)=N\NC(=S)N/N=C(C)/C=C/c1ccccc1 | 17.9 µM (inactive) | 19 µM (inactive) | 4.03 µM (inactive) | 28.1 µM (inactive) | 4.86 µM (inactive) | 6.46 µM (inactive) | 15.5 µM (inactive) | 5.93 µM (inactive) | 21 µM (inactive) | 16.1 µM (inactive) | 17.5 µM (inactive) | 23.9 µM (inactive) | 4.22 µM (inactive) | 20.7 µM (inactive) | 23.2 µM (inactive) | 5.93 µM (inactive) | 15.8 µM (inactive) | 20.5 µM (inactive) | 20.8 µM (inactive) |
| Cc1ccccc1/N=N/c1c(O)c(S(=O)(=O)O)cc2cc(S(=O)(=O)O)ccc12 | > 100 µM (inactive) | > 100 µM (inactive) | > 100 µM (inactive) | > 100 µM (inactive) | > 100 µM (inactive) | > 100 µM (inactive) | > 100 µM (inactive) | > 100 µM (inactive) | > 100 µM (inactive) | > 100 µM (inactive) | > 100 µM (inactive) | > 100 µM (inactive) | > 100 µM (inactive) | > 100 µM (inactive) | > 100 µM (inactive) | > 100 µM (inactive) | > 100 µM (inactive) | > 100 µM (inactive) | > 100 µM (inactive) |
